Laboratory results from ChEMBL document CHEMBL1201862, “PubChem BioAssay data set” (2004).
Active and inactive are the calls of the source.

Experiments:
[1] = inhibitors of firefly luciferase expression or activity, dose response, H4 neuroglioma cells, luminescence (AID 1990); type: functional, cell-based
[2] = Luminescence Cell-Based Dose Response HTS to Identify Inhibitors of 5'UTR Stem-Loop Driven Prion Protein mRNA Translation in H4 Neuroglioblastoma Cells. [Related pubchem assays: 1827 (Project Summary), 1813 (Primary HTS)]; type: functional
[3] = inhibitors of SNCA 5'UTR-driven reporter translation, confirmation, H4 neuroglioma cells, luminescence (AID 1988); type: functional, cell-based
HEK293 [4] = assay: cytotoxicity in HEK293T NF-kB-Luc cells, SAR follow-up, cytotoxicity control for NF-kB activator project, cell-based, resazurin fluorescence (AID 493251); type: functional; conditions: Homo sapiens
Jurkat [5] = assay: SAR Analysis of small molecule inhibitors of T-cell specific antigen receptor-induced NF-kB activation in a Jurkat cell line using a luminescence assay - Set 2. [Related pubchem assays (depositor defined):AID435003, AID435012, AID465]; type: functional, cell-based; conditions: Homo sapiens
HEK293 [6] = assay: SAR Analysis of small molecule inhibitors of T-cell specific antigen receptor-induced NF-kB activation in a HEK-293T cell line using a luminescence assay - Set 2. [Related pubchem assays (depositor defined):AID435003, AID435012, AID489026]; type: functional, cell-based; conditions: Homo sapiens
INS1 = assay: beta cell apoptosis inhibitors, cytokine rescue, dose response, luminescence, retest (AID 449756); type: functional, cell-based; conditions: Rattus norvegicus;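 also: cell death triggered by IL-1 beta plus TNF-alpha plus IFN-gamma mixture; protective hits raise ATP signal compared with cytokine alone wells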
Vero = assay: cells; type: functional; conditions: Chlorocebus sabaeus
[7] = mammalian cell cytotoxicity, dose response, cytotoxicity control, plate reader, cherry-pick samples (AID 504397); type: functional, cell-based
CAAX prenyl protease 2 = CAAX prenyl protease 2 (Saccharomyces cerevisiae S288c, UniProt Q03530); assay: yeast Rce1 CaaX protease inhibitors, dose response, biochemical, plate reader, dry powder retest (AID 588851)
CAAX prenyl protease 2, sequence (Q03530 whole entry): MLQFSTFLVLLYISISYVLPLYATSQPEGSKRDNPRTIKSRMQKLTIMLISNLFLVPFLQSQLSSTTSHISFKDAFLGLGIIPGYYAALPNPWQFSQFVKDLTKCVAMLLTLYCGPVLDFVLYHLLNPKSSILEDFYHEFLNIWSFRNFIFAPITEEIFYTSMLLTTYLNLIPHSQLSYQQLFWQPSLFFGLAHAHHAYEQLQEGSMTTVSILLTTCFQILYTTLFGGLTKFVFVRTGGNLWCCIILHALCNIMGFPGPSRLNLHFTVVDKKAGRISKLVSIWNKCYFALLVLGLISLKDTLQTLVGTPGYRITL

HEK293 [8] = assay: NOD1 signaling inhibitors, primary screen, cell-based, luminescence, uHTS (AID 1578); type: functional; conditions: Homo sapiens
HEK293 [9] = assay: cells; type: functional, cell-based; conditions: Homo sapiens
HEK293 [10] = assay: cells; type: functional, cell-based; conditions: Homo sapiens; remark: listed apart in the source
HEK293 [11] = assay: NOD2 signaling inhibitors in MDP-stimulated cells, cell-based, uHTS, luminescence (AID 2001); type: functional; conditions: Homo sapiens
Tumor necrosis factor = Tumor necrosis factor (Homo sapiens, UniProt P01375); assay: TNFa-triggered NF-kB activation inhibitors, SAR follow-up, cell-based, revised (AID 2337); type: functional
Tumor necrosis factor, sequence (P01375 whole entry, the tested form may be a part): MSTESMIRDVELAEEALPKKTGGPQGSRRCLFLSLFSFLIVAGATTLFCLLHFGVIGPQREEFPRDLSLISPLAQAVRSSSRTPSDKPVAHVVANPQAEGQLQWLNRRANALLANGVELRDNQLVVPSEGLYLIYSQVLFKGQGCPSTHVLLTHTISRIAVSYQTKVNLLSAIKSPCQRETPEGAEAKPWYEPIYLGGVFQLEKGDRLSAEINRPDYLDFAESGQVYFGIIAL

[12] = biological target: Nucleotide-binding oligomerization domain-containing protein 1 (Homo sapiens, UniProt Q9Y239); assay: NOD1 signaling inhibitors, SAR follow-up, revised (AID 2333); type: functional
HEK293 [13] = assay: cells; conditions: Homo sapiens
[14] = biological target: Glycogen synthase kinase-3 alpha (Homo sapiens, UniProt P49840); assay: Inhibition of Human GSK-3 alpha Activity Measured in Biochemical System Using Microfluidics - 2063-06_Inhibitor_Dose_DryPowder_Activity. [Related pubchem assays (depositor defined):AID2709]
Glycogen synthase kinase-3 alpha, sequence (P49840 whole entry): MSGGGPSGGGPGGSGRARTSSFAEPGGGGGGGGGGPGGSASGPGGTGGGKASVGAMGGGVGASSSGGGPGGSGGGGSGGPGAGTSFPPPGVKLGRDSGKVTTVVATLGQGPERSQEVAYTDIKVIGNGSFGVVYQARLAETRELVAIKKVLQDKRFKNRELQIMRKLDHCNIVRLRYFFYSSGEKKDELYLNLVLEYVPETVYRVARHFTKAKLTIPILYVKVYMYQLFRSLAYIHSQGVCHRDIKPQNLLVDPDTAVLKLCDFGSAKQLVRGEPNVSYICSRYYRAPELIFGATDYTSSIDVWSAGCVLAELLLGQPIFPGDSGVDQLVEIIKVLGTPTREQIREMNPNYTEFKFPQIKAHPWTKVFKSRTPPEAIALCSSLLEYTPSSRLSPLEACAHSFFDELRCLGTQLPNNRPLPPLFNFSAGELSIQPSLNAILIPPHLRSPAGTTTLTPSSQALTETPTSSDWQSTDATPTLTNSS

[15] = biological target: Glycogen synthase kinase-3 beta (Homo sapiens, UniProt P49841); assay: Inhibition of Human GSK-3 beta Activity Measured in Biochemical System Using Microfluidics - 2063-05_Inhibitor_Dose_DryPowder_Activity. [Related pubchem assays (depositor defined):AID2709]
Glycogen synthase kinase-3 beta, sequence (P49841 whole entry): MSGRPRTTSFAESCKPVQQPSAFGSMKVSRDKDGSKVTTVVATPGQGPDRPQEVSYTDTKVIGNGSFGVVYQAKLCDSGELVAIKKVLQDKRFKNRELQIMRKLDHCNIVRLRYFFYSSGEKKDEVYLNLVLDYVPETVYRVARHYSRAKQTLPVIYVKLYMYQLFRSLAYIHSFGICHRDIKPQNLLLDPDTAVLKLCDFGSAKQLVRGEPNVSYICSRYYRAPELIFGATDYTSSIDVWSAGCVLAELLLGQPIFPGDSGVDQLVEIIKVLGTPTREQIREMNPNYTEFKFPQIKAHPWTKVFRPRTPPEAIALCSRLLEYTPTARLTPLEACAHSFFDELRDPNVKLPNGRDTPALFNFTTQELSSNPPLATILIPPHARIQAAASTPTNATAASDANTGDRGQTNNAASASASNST

Jurkat [16] = assay: antigen receptor-induced NF-kB inhibitors, dose response, Jurkat, luciferase reporter, luminescence, B- and T-cell (AID 489004); type: functional, cell-based; conditions: Homo sapiens;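 also: NF-kB luciferase reporter Jurkat cells stimulated with PMA plus ionomycin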
[17] = cytotoxicity in HEK-293T NF-kB-Luc cells, dose response, cytotoxicity control for B/T-cell NF-kB inhibitor project, cell-based, uHTS hits (AID 489019); type: functional;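 also: IC50 reflects cytotoxicity as loss of cell viability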
[18] = biological target: Multidrug resistance protein CDR1 (Candida albicans, UniProt P43071); assay: CaCDR1 efflux pump inhibitors in yeast, dose response, S. cerevisiae AD1-8u, singleplex, Cherry Pick1 hits (AID 588606); type: functional
[19] = biological target: Benomyl/methotrexate resistance protein (Candida albicans, UniProt P28873); assay: CaMdr1 efflux pump inhibitor potency, dose response, singleplex, Cherry Pick2 set (AID 623992); type: functional; conditions: read-out: EC50_MICROM
Benomyl/methotrexate resistance protein, sequence (P28873 whole entry): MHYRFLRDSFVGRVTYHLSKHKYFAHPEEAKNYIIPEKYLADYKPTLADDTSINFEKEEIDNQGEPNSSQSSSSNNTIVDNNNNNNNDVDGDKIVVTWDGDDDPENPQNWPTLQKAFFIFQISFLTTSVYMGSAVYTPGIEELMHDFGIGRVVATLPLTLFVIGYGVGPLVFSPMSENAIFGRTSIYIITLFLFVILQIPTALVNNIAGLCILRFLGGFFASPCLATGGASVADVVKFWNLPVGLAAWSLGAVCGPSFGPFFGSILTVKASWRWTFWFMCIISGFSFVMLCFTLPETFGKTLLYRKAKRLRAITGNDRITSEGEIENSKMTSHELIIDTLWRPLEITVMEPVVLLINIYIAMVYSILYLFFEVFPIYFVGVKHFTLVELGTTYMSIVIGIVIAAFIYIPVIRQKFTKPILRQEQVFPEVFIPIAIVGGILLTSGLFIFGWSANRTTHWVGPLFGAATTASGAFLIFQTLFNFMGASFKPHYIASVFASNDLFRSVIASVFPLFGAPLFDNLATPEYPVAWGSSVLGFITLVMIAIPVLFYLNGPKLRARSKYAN

[20] = growth induction of Burl-1 ts yeast mutant, dose response, counter-screen for SUMOylation pathway inhibitor project, whole organism, S. cerevisiae, luminescence (AID 463199); type: functional
[21] = biological target: T1, Carboxy-terminal domain RNA polymerase II polypeptide A small phosphatase 1 (Homo sapiens, UniProt Q9GZU7); assay: inhibitors of CTDSP1, concentration-response testing, biochemical assay, absorbance-based, actives from ultra-high-throughput screening (AID 540297); type: functional
T1 sequence (Q9GZU7 whole entry): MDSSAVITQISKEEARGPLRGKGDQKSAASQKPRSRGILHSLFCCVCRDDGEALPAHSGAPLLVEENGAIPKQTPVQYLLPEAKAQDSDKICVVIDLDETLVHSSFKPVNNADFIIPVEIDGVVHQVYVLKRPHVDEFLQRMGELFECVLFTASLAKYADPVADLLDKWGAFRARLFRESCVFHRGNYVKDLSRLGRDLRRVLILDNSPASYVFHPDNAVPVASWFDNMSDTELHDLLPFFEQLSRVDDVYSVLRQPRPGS

[22] = biological target: T2, Fructose-bisphosphate aldolase (Mycobacterium tuberculosis, UniProt P9WQA3); assay: Fluorescence-based biochemical high throughput dose response assay for inhibitors of the fructose-bisphosphate aldolase (FBA) of M. tuberculosis.; type: functional
T2 sequence (P9WQA3 whole entry): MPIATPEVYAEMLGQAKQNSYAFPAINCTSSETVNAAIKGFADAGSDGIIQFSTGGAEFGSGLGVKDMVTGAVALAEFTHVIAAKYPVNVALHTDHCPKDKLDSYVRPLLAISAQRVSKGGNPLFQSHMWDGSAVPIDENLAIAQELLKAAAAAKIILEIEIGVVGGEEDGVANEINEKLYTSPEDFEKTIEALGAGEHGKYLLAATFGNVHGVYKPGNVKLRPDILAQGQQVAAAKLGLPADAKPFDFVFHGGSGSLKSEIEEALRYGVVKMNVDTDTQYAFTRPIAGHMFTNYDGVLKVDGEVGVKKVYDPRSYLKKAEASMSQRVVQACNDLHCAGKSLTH

[23] = biological target: NAD-dependent protein deacylase sirtuin-5, mitochondrial (Homo sapiens, UniProt Q9NXA8); assay: SIRT5 desuccinylase inhibitors, dose response, biochemical, fluorescence imaging, cherry-pick, set 5 (AID 720591);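 also: desuccinylation of succinyl peptide AMC substrate read as fluorescence after trypsin release; potency of inhibitors that lower fluorescence and may act on trypsin instead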
NAD-dependent protein deacylase sirtuin-5, mitochondrial, sequence (Q9NXA8 whole entry): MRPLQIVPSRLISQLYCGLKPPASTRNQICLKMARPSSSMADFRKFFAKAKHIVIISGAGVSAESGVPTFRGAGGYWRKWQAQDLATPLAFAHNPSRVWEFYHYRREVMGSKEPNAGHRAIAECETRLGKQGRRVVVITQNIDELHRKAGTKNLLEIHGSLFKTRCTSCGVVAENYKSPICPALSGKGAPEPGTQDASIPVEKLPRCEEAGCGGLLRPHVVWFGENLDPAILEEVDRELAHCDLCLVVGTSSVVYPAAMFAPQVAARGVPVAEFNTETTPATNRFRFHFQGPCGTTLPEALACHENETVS

[24] = biological target: RNA-editing ligase 1, mitochondrial (Trypanosoma brucei brucei, UniProt P86926); assay: TbREL1 ligase inhibitors, dose response, biochemical, fluorescence, Trypanosoma brucei (AID 1117295); type: functional
Keap1/Nrf2 = Keap1/Nrf2 (Homo sapiens, UniProt Q14145); assay: Keap1-Nrf2 protein-protein interaction inhibitors, dose response, biochemical, fluorescence polarization, cherry-picked samples (AID 588683)
[25] = biological target: T3, Corticotropin-releasing factor receptor 2/Corticotropin-releasing factor-binding protein (Homo sapiens, UniProt P24387+Q13324); assay: activators of CRF receptor 2 with binding protein – uHTS hits, confirmation (AID 602473); type: functional; conditions: read-out: EC50_Mean
T3 sequence (Q13324 whole entry): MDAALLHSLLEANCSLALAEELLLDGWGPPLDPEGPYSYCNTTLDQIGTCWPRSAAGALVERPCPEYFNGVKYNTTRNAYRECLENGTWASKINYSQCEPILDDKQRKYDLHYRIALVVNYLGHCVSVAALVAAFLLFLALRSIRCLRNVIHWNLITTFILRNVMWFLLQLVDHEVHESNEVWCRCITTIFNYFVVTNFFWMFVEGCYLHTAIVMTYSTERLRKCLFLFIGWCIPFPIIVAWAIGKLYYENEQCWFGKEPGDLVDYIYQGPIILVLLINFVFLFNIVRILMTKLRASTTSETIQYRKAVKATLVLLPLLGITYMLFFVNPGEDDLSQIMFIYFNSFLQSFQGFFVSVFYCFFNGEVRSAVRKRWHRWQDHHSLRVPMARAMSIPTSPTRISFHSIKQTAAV
T3 sequence (P24387 whole entry): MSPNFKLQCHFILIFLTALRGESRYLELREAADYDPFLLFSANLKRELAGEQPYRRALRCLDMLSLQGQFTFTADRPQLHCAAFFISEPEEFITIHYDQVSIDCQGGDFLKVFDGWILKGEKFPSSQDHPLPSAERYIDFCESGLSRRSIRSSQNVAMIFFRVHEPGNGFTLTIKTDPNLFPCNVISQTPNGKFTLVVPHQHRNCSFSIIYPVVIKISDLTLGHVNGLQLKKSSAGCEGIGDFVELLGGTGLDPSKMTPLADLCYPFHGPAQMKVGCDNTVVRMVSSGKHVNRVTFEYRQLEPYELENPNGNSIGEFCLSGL

[26] = biological target: Dual specificity protein kinase CLK1 (Homo sapiens, UniProt P49759); assay: CLK1 kinase inhibitors, off-target check, dose response, selectivity assay for Dyrk1A inhibitor project, biochemical, cherry-picked samples (AID 588811)
[27] = biological target: Dual specificity protein phosphatase 3 (Homo sapiens, UniProt P51452); assay: SAR VHR1 Fluorescent Assay for In Vitro dose response studies Set 2. [Related pubchem assays (depositor defined):AID1654, AID1661, AID1878]; type: functional
Dual specificity protein phosphatase 3, sequence (P51452 whole entry): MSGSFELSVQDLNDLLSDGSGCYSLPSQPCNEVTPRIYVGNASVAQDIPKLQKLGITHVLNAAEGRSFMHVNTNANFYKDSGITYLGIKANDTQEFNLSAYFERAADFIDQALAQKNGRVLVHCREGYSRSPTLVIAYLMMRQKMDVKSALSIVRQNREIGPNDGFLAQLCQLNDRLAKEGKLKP

[28] = biological target: Dual specificity protein phosphatase 6 (Rattus norvegicus, UniProt Q64346); type: functional;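 also: confirmatory in vitro dose-response testing of MKP-3 inhibition; recombinant His-tagged MKP-3 made in E. coli BL21 with OMFP substrate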
Hexokinase-1 = Hexokinase-1 (Homo sapiens, UniProt P19367); assay: HK1 enzyme inhibition by HKDC1 hits, SAR follow-up, selectivity assay for HKDC1 inhibitor project, biochemical, set 2, resazurin fluorescence coupled readout (AID 588356); type: functional
Hexokinase-1, sequence (P19367 whole entry): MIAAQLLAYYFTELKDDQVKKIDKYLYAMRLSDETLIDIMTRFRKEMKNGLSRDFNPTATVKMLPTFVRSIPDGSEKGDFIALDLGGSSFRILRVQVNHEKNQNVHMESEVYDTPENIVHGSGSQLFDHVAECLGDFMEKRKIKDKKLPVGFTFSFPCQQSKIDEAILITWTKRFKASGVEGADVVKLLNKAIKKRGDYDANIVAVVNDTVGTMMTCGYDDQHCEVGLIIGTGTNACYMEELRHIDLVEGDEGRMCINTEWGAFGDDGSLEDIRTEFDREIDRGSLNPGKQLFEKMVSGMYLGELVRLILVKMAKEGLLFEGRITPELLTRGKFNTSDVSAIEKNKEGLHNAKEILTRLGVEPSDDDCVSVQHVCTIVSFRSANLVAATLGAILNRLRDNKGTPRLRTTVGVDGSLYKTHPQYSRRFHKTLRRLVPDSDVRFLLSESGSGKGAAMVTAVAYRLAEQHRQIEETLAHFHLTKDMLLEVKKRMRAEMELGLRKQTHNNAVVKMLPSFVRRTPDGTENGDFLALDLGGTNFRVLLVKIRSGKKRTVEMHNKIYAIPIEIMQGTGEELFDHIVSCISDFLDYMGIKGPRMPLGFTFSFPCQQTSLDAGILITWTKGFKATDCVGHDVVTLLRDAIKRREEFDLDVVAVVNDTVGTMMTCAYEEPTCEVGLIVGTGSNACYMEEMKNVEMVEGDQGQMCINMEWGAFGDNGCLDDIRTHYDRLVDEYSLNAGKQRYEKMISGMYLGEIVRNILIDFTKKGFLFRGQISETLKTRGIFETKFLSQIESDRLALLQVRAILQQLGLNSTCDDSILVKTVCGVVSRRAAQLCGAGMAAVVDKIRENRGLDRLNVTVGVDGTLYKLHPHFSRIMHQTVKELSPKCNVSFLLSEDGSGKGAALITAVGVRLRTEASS

Hexokinase HKDC1 = Hexokinase HKDC1 (Homo sapiens, UniProt Q2TB90); assay: HKDC1 hexokinase inhibitors, SAR follow-up, biochemical, set 2 (AID 588355); type: functional
Hexokinase HKDC1, sequence (Q2TB90 whole entry): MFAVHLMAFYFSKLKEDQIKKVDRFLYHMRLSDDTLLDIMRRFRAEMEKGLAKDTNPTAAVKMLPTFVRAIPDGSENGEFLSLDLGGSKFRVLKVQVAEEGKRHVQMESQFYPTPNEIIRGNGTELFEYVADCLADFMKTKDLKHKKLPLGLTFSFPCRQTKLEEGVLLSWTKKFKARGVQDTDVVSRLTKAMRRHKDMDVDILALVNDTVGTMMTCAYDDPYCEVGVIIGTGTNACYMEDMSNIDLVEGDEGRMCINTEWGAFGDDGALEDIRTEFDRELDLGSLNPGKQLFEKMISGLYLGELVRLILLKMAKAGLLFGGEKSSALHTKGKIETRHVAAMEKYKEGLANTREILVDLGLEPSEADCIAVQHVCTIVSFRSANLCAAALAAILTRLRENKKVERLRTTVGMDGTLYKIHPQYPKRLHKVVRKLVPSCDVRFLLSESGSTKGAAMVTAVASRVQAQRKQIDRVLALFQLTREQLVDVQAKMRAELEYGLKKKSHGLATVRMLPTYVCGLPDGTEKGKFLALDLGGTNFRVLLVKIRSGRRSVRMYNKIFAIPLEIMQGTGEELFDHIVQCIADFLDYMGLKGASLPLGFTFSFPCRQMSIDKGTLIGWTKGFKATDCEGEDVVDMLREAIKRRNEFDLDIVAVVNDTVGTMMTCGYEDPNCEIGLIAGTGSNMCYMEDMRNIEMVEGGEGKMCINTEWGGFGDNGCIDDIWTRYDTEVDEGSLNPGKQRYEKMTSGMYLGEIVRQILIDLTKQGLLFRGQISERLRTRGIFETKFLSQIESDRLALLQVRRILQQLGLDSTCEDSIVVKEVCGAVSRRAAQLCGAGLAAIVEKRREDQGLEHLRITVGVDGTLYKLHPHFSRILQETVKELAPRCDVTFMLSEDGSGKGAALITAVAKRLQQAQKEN

[29] = NIH-3T3 fibroblast cytotoxicity, dose response, cytotoxicity control, cell-based, fluorescence, Alamar Blue, secondary assay (AID 2327); type: functional;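 also: NIH-3T3 mouse fibroblasts cultured with fluconazole at 8 µg/mL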
[30] = C. albicans growth with fluconazole, confirmation, fluorescence, retest (AID 2467); type: functional, cell-based
[31] = biological target: Serine/threonine-protein phosphatase (Candida dubliniensis (strain CD36 / CBS 7987 / NCPF 3949 / NRRLY-17841) (Yeast), UniProt B9W6M3); assay: calcineurin pathway inhibitors in yeast reporter, dose response, S. cerevisiae, CDRE-lacZ, luminescence, secondary (AID 2388); type: functional, cell-based;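 also: yeast reporter cells carrying a calcineurin-responsive lacZ construct stimulated with calcium chloride; luminescent beta-galactosidase reporter signal in whole cells rather than isolated phosphatase activity; potency for inhibition where a drop in reporter signal means calcineurin blockade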
Serine/threonine-protein phosphatase, sequence (B9W6M3 whole entry): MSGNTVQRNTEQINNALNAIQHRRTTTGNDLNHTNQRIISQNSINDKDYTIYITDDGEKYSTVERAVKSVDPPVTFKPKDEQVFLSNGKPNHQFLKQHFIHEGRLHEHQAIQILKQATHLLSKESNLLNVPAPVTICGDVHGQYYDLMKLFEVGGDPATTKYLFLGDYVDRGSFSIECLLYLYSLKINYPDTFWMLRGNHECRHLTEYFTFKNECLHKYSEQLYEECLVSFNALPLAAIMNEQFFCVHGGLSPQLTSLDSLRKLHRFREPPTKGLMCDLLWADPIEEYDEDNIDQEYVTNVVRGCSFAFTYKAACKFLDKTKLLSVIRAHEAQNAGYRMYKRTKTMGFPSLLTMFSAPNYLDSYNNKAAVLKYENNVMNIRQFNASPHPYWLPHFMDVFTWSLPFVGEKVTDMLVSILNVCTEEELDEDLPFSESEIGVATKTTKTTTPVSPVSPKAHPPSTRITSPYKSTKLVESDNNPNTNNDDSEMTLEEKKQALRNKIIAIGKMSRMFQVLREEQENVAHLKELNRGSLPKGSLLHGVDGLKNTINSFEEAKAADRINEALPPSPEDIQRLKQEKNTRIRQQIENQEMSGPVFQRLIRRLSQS

[32] = biological target: ATP-dependent molecular chaperone HSP82 (Candida albicans (strain WO-1) (Yeast), UniProt C4YTQ8); assay: loss of DOC-induced GRE-beta-galactosidase reporter signal, dose response, Hsp90 inhibitor project, S. cerevisiae, luminescence (AID 2400); type: functional, cell-based;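 also: beta-galactosidase luminescence from glucocorticoid response element reporter as proxy for Hsp90 function; inhibitor potency where signal loss means Hsp90 inhibition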

CCN1CCN(c2c(Cl)cccc2NC(=O)c2ccc([N+](=O)[O-])o2)CC1
EC50 [1]: 10.6 µM (active)
EC50 [2]: > 120 µM (not active)
EC50 [3]: 11.1 µM (active)
IC50 (HEK293 [4]): 18.7 µM (active)
IC50 (Jurkat [5]): 10.6 µM (active)
IC50 (HEK293 [6]): 17.9 µM (active)
AC50 (INS1): 3.68 µM (active)
CC50 (Vero): 23.4 µM (active)

Cc1cc(N2CCN(C(c3ccccc3)c3ccccc3)CC2)n2ncnc2n1
AC50 [7]: 159 µM (active)
AC50 (CAAX prenyl protease 2): 7.39 µM (active)

NC(=O)c1ccc(N2CCN(S(=O)(=O)c3ccccc3)CC2)c([N+](=O)[O-])c1
EC50 (HEK293 [8]): 4.72 µM (active)
IC50 (HEK293 [9]): 16 µM (active)
IC50 (HEK293 [10]): > 20 µM (inactive)
IC50 (HEK293 [11]): > 20 µM (inactive)
IC50 (Tumor necrosis factor): > 20 µM (inactive)
IC50 [12]: 5.86 µM (active)
IC50 (HEK293 [13]): > 20 µM (inactive)

Nc1nc(Nc2cccc(F)c2)nc(NCCO)c1[N+](=O)[O-]
AC50 [14]: 953 nM (active)
AC50 [15]: 228 nM (active)

Cc1cc(Cl)c(S(=O)(=O)N2CCCCCC2)cc1OCC(=O)NC1CCCCC1
IC50 (Jurkat [16]): > 80 µM (inactive)
IC50 [17]: > 80 µM (inactive)

CCO[C@@H]1OC(C(=O)Nc2ccccc2)=C[C@H](c2ccc(Br)cc2)[C@H]1CCCO
EC50 [18]: 11.7 µM (active)
EC50 [19]: 25.2 µM (active)

CCCSc1nnc(NC(=O)CSc2sc3c(O)cc(O)nc3c2C#N)s1
AC50 [20]: 106 µM (active)
IC50 [21]: 3.46 µM (active)
IC50 [22]: > 9.99 µM (inactive)
AC50 [23]: > 30 µM (inactive)
IC50 [24]: 50.7 µM (inactive)

CCN(CC)S(=O)(=O)c1ccc(C(=O)OCCN2C(=O)c3cccc4c(N5CCOCC5)ccc(c34)C2=O)cc1
AC50 (Keap1/Nrf2): 13.9 µM (active)
EC50 [25]: 6.47 µM (active)

CCCNc1ncnc2ccc(-c3ccc4c(c3)OCO4)cc12
AC50 [26]: 3.14 nM (active)

COc1ccc(C(=O)NC2CCSc3ccccc32)cc1S(N)(=O)=O (centres undefined)
IC50 [27]: > 100 µM (inactive)
IC50 [28]: > 100 µM (inactive)

O=C(O)C(c1ccccc1)N1C(=O)c2ccccc2C1=O (centres undefined)
IC50 (Hexokinase-1): > 80 µM (inactive)
IC50 (Hexokinase HKDC1): > 80 µM (inactive)

O=[N+]([O-])c1cc(Cl)c2cccnc2c1O
EC50 [29]: 11.1 µM (active)
EC50 [30]: 84 nM (active)
EC50 [31]: > 180 µM (inactive)
EC50 [32]: 3.67 µM (active)
